We go through 15 compounds from US20240368214A1, “POSITIVE NMDA-MODULATING COMPOUNDS AND METHODS OF USE THEREOF” (SAGE THERAPEUTICS, INC., priority 2021, published 2024).

T1 sequence (Q12879 23-1464, other chains not shown): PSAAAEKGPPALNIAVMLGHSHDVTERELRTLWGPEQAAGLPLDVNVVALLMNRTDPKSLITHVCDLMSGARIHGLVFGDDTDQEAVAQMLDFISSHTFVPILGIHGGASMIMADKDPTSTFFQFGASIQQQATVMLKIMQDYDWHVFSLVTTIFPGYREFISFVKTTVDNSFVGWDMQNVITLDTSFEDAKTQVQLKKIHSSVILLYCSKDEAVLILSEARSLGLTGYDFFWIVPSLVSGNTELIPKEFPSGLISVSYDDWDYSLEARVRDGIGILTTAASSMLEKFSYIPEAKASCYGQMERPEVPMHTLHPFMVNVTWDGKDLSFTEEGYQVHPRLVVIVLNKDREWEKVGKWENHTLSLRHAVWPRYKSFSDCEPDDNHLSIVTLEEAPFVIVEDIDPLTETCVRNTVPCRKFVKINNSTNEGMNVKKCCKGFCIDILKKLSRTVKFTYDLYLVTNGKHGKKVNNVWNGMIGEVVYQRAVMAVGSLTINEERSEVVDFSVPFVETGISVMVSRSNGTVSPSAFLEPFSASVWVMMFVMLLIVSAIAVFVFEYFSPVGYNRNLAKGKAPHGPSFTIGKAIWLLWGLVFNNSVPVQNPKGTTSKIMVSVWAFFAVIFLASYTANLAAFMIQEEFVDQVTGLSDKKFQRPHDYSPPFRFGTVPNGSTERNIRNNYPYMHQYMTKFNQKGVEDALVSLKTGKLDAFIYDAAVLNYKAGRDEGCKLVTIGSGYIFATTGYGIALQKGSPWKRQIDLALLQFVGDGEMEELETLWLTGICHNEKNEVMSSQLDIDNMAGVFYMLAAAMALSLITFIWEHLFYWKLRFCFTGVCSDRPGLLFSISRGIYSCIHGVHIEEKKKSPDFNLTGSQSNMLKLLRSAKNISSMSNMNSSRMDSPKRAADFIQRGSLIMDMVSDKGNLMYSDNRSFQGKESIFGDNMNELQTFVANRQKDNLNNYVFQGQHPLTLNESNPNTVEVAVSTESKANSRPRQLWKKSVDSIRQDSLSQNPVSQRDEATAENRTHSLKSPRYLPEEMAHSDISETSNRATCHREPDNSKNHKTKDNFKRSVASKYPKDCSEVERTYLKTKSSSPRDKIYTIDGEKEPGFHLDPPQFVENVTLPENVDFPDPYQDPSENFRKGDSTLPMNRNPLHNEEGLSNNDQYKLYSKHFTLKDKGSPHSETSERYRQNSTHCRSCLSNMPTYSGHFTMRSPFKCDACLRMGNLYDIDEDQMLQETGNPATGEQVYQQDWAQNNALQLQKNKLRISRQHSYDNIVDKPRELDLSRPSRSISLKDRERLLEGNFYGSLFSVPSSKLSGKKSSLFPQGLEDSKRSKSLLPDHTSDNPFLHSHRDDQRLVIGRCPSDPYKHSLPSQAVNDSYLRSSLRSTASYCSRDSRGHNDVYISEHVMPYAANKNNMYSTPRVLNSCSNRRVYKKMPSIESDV

The first assay concerns the target T1, recombinant human GluN1/GluN2A receptor (Homo sapiens, UniProt Q05586+Q12879).
T1 construct: expressed in transfected cells; host or cells: HEK293, tetracycline-inducible expression
Put plainly: Whole-cell patch clamp of mammalian cells (Syncropatch 384i), NMDA modulation. The assay is classed as cell-based. The settings on record: Table E-2; HEK293 cells, human GluN1/GluN2A; glutamate 1 μM / glycine 100 μM; -80 mV; peak amplitude increase. In short, it runs like this:
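HEK293 cells with tetracycline-induced (50 ng/ml, 18–24 h) human GluN1/GluN2A, automated whole-cell recording at −80 mV, pH 7.4 external. After 120 s compound pre-incubation, compound applied with glutamate 1 μM/glycine 100 μM; fold peak increase (Icomp/Icontrol)−1 over 8 concentrations fitted four-parameter logistic.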
Background: Patch clamp records ionic current or voltage across a cell membrane.
In general, Emax refers to the maximal effect, on the per cent scale that the assay sets. Turning to `CC(C)[C@H](O)CC[C@@H](C)[C@H]1CC[C@H]2[C@@H]3CC[C@H]4C[C@@](C)(O)CC[C@]4(C)C3=CC[C@]12C` [Compound E-11, (3S,5S,8S,10S,13R,14S,17R)-17-((2R,5R)-5-hydroxy-6-methylheptan-2-yl)-3,10,13-trimethyl-2,3,4,5,6,7,8,10,12,13,14,15,16,17-tetradecahydro-1H-cyclopenta[a]phenanthren-3-ol], the maximal response (Emax) is 100 to 200%.
For the compound `CC(C)[C@@H](O)CC[C@@H](C)[C@H]1CC[C@H]2[C@@H]3CC[C@H]4C[C@@](C)(O)CC[C@]4(C)C3=CC[C@]12C` [Compound E-12, (3S,5S,8S,10S,13R,14S,17R)-17-((2R,5S)-5-hydroxy-6-methylheptan-2-yl)-3,10,13-trimethyl-2,3,4,5,6,7,8,10,12,13,14,15,16,17-tetradecahydro-1H-cyclopenta[a]phenanthren-3-ol], the Emax is 100 to 200%.

Still in this assay, the particulars now being: Table E-2; HEK293 cells, human GluN1/GluN2A; glutamate 1 μM / glycine 100 μM; -80 mV; peak amplitude increase; read-out: EC50.
What is called EC50 is the concentration giving half of the maximal effect. As for `CC(C)[C@H](O)CC[C@@H](C)[C@H]1CC[C@H]2[C@@H]3CC[C@H]4C[C@@](C)(O)CC[C@]4(C)C3=CC[C@]12C` [Compound E-11, (3S,5S,8S,10S,13R,14S,17R)-17-((2R,5R)-5-hydroxy-6-methylheptan-2-yl)-3,10,13-trimethyl-2,3,4,5,6,7,8,10,12,13,14,15,16,17-tetradecahydro-1H-cyclopenta[a]phenanthren-3-ol], the concentration giving a half-maximal response (EC50) was in the range of 1 to 100 nM.
Take `CC(C)[C@@H](O)CC[C@@H](C)[C@H]1CC[C@H]2[C@@H]3CC[C@H]4C[C@@](C)(O)CC[C@]4(C)C3=CC[C@]12C` [Compound E-12, (3S,5S,8S,10S,13R,14S,17R)-17-((2R,5S)-5-hydroxy-6-methylheptan-2-yl)-3,10,13-trimethyl-2,3,4,5,6,7,8,10,12,13,14,15,16,17-tetradecahydro-1H-cyclopenta[a]phenanthren-3-ol]: the EC50 lay within 1 to 100 nM.
Same read-out and setting: as for `C[C@H](CC[C@](C)(O)C(F)(F)F)[C@H]1CC[C@H]2[C@@H]3CC[C@H]4C[C@@](C)(O)CC[C@]4(C)C3=CC[C@]12C` [Compound E-13, (3S,5S,8S,10S,13R,14S,17R)-3,10,13-trimethyl-17-((2R,5S)-6,6,6-trifluoro-5-hydroxy-5-methylhexan-2-yl)-2,3,4,5,6,7,8,10,12,13,14,15,16,17-tetradecahydro-1H-cyclopenta[a]phenanthren-3-ol], the figure is 1 to 100 nM; as for `C[C@H](CC[C@@](C)(O)C(F)(F)F)[C@H]1CC[C@H]2[C@@H]3CC[C@H]4C[C@@](C)(O)CC[C@]4(C)C3=CC[C@]12C` [Compound E-14, (3S,5S,8S,10S,13R,14S,17R)-3,10,13-trimethyl-17-((2R,5R)-6,6,6-trifluoro-5-hydroxy-5-methylhexan-2-yl)-2,3,4,5,6,7,8,10,12,13,14,15,16,17-tetradecahydro-1H-cyclopenta[a]phenanthren-3-ol], 100 to 500 nM.
With `C[C@H](CCC1(O)CC1)[C@H]1CC[C@H]2[C@@H]3CC[C@H]4C[C@@](C)(O)CC[C@]4(C)C3=CC[C@]12C` [Compound E-15, (3S,5S,8S,10S,13R,14S,17R)-17-((R)-4-(1-hydroxycyclopropyl)butan-2-yl)-3,10,13-trimethyl-2,3,4,5,6,7,8,10,12,13,14,15,16,17-tetradecahydro-1H-cyclopenta[a]phenanthren-3-ol], the 50% effective concentration (EC50) lay within 1 to 100 nM.
Regarding `CCC(O)(CC)CC[C@@H](C)[C@H]1CC[C@H]2[C@@H]3CC[C@H]4C[C@@](C)(O)CC[C@]4(C)C3=CC[C@]12C` [Compound E-16, (3S,5S,8S,10S,13R,14S,17R)-17-((R)-5-ethyl-5-hydroxyheptan-2-yl)-3,10,13-trimethyl-2,3,4,5,6,7,8,10,12,13,14,15,16,17-tetradecahydro-1H-cyclopenta[a]phenanthren-3-ol], the EC50 lay in the range of 500 to 1000 nM.

Still in this assay, the particulars now being: Table F-2; HEK293 cells, human GluN1/GluN2A; glutamate 1 μM / glycine 100 μM; -80 mV; peak amplitude increase; read-out: EC50.
Turning to `CC[C@]12CC[C@H]3[C@@H](CC=C4C[C@@](C)(O)CC[C@@]43C)[C@@H]1CC[C@@H]2[C@H](C)CC[C@H](O)C(C)C` [Compound F-3, (3S,8S,9S,10R,13R,14S,17R)-13-ethyl-17-((2R,5S)-5-hydroxy-6-methylheptan-2-yl)-3,10-dimethyl-2,3,4,7,8,9,10,11,12,13,14,15,16,17-tetradecahydro-1H-cyclopenta[a]phenanthren-3-ol], the EC50 fell in the range of 100 to 500 nM.
Still for that read-out and setting: as for `CC[C@]12CC[C@H]3[C@@H](CC=C4C[C@@](C)(O)CC[C@@]43C)[C@@H]1CC[C@@H]2[C@H](C)CC[C@@H](O)C(C)C` [Compound F-4, (3S,8S,9S,10R,13R,14S,17R)-13-ethyl-17-((2R,5R)-5-hydroxy-6-methylheptan-2-yl)-3,10-dimethyl-2,3,4,7,8,9,10,11,12,13,14,15,16,17-tetradecahydro-1H-cyclopenta[a]phenanthren-3-ol], the figure is 100 to 500 nM.
The same measure, in the same setting: as for `CC[C@]1(O)CC[C@@]2(C)C(=CC[C@H]3[C@@H]4CC[C@H]([C@H](C)CC[C@H](O)C(C)C)[C@@]4(CC)CC[C@@H]32)C1` [Compound F-5, (3S,8S,9S,10R,13R,14S,17R)-3,13-diethyl-17-((2R,5S)-5-hydroxy-6-methylheptan-2-yl)-10-methyl-2,3,4,7,8,9,10,11,12,13,14,15,16,17-tetradecahydro-1H-cyclopenta[a]phenanthren-3-ol], the figure is 100 to 500 nM; as for `CC[C@]1(O)CC[C@@]2(C)[C@@H](CC[C@@H]3[C@@H]2CC[C@]2(CC)[C@@H]([C@H](C)CC[C@H](O)C(C)C)CC[C@@H]32)C1` [Compound F-6, (3S,5S,8R,9S,10S,13R,14S,17R)-3,13-diethyl-17-((2R,5S)-5-hydroxy-6-methylheptan-2-yl)-10-methylhexadecahydro-1H-cyclopenta[a]phenanthren-3-ol], 100 to 500 nM.
On the same count and under the same terms, as for `CC[C@]1(O)CC[C@@]2(C)[C@@H](CC[C@@H]3[C@@H]2CC[C@]2(CC)[C@@H]([C@H](C)CC[C@@H](O)C(C)C)CC[C@@H]32)C1` [Compound F-7, (3S,5S,8R,9S,10S,13R,14S,17R)-3,13-diethyl-17-((2R,5R)-5-hydroxy-6-methylheptan-2-yl)-10-methylhexadecahydro-1H-cyclopenta[a]phenanthren-3-ol], the figure is 100 to 500 nM; as for `CC[C@]1(O)CC[C@@]2(C)[C@@H](CC[C@H]3[C@@H]4CC[C@H]([C@H](C)CC[C@H](O)C(C)C)[C@H]4CC[C@@H]32)C1` [Compound F-8, (3S,5S,8S,9S,10S,13R,14R,17R)-3-ethyl-17-((2R,5S)-5-hydroxy-6-methylheptan-2-yl)-10-methylhexadecahydro-1H-cyclopenta[a]phenanthren-3-ol], 100 to 500 nM.
Consider `CC[C@]1(O)CC[C@@]2(C)[C@@H](CC[C@H]3[C@@H]4CC[C@H]([C@H](C)CC[C@@H](O)C(C)C)[C@H]4CC[C@@H]32)C1` [Compound F-9, (3S,5S,8S,9S,10S,13R,14R,17R)-3-ethyl-17-((2R,5R)-5-hydroxy-6-methylheptan-2-yl)-10-methylhexadecahydro-1H-cyclopenta[a]phenanthren-3-ol], for which the EC50 fell in the range of 100 to 500 nM.
With `CC[C@]1(O)CC[C@@]2(C)C(=CC[C@H]3[C@@H]4CC[C@H]([C@H](C)CC[C@@H](O)C(C)C)[C@H]4CC[C@@H]32)C1` [Compound F-10, (3S,8S,9S,10R,13R,14R,17R)-3-ethyl-17-((2R,5R)-5-hydroxy-6-methylheptan-2-yl)-10-methyl-2,3,4,7,8,9,10,11,12,13,14,15,16,17-tetradecahydro-1H-cyclopenta[a]phenanthren-3-ol], the half-maximal effective concentration (EC50) lay in the range of 100 to 500 nM.
Regarding `CC[C@]1(O)CC[C@@]2(C)C(=CC[C@H]3[C@@H]4CC[C@H]([C@H](C)CC[C@@H](O)C(C)C)[C@@]4(CC)CC[C@@H]32)C1` [Compound F-14, (3S,8S,9S,10R,13R,14S,17R)-3,13-diethyl-17-((2R,5R)-5-hydroxy-6-methylheptan-2-yl)-10-methyl-2,3,4,7,8,9,10,11,12,13,14,15,16,17-tetradecahydro-1H-cyclopenta[a]phenanthren-3-ol], the concentration for a half-maximal effect (EC50) lay in the range of 100 to 500 nM.
